Measurements as given in ChEMBL document CHEMBL3259525, “Plasmepsin inhibitory activity and structure-guided optimization of a potent hydroxyethylamine-based antimalarial hit” (ACS Med Chem Lett, 2014).

Experiments:
Plasmepsin I = Plasmepsin I (Plasmodium falciparum, UniProt P39898); assay: Inhibition of Plasmodium falciparum plasmepsin-1 using DABCYL-Glu-Arg-Nle-Phe-Leu-Ser-Phe-Pro-EDANS as substrate preincubated for 30 mins by FRET assay
Plasmepsin II = Plasmepsin II (Plasmodium falciparum, UniProt P46925); assay: Inhibition of Plasmodium falciparum plasmepsin-2 using DABCYL-Glu-Arg-Nle-Phe-Leu-Ser-Phe-Pro-EDANS as substrate preincubated for 30 mins by FRET assay
Chain of Plasmepsin II (P46925 whole entry): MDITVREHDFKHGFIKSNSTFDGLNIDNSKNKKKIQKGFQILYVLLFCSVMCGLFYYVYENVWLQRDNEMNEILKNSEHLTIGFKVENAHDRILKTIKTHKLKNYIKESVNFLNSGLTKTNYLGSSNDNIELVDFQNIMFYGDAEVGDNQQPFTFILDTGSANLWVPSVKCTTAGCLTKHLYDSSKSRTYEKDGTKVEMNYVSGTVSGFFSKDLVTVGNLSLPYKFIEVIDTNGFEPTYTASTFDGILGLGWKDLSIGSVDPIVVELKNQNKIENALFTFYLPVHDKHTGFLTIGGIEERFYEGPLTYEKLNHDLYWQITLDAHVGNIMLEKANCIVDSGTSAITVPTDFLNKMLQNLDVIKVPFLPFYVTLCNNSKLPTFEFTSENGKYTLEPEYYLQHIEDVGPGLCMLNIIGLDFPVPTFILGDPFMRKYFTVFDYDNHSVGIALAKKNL

[1] = Inhibition of Plasmodium falciparum plasmepsin-4 using DABCYL-Glu-Arg-Nle-Phe-Leu-Ser-Phe-Pro-EDANS as substrate preincubated for 30 mins by FRET assay
Cathepsin D = Cathepsin D (Homo sapiens, UniProt P07339); assay: Inhibition of human cathepsin-D using DABCYL-Glu-Arg-Nle-Phe-Leu-Ser-Phe-Pro-EDANS as substrate preincubated for 30 mins by FRET assay
Chain of Cathepsin D (P07339 65-162 limits assumed): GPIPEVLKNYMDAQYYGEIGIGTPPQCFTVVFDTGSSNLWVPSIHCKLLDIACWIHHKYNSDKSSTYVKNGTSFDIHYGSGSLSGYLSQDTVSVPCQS
Chain of Cathepsin D (P07339 169-412 limits assumed): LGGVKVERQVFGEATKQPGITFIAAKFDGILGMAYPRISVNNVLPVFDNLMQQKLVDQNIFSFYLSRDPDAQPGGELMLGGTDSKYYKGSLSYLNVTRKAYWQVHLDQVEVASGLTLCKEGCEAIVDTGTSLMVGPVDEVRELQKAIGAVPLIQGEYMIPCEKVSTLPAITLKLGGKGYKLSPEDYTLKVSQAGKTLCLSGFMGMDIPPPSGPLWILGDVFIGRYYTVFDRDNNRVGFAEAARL

Plasmodium falciparum [2] = assay: Antimalarial activity against blood-stage Plasmodium falciparum 3D7 assessed as inhibition of parasite growth after 96 hrs by SYBR Green I assay; type: functional, organism-based; details: 3D7, 96 h
Plasmodium falciparum [3] = assay: Antimalarial activity against intra erythrocytic Plasmodium falciparum assessed as inhibition of parasite growth; type: functional, organism-based

Chain of Plasmepsin I (P39898 whole entry): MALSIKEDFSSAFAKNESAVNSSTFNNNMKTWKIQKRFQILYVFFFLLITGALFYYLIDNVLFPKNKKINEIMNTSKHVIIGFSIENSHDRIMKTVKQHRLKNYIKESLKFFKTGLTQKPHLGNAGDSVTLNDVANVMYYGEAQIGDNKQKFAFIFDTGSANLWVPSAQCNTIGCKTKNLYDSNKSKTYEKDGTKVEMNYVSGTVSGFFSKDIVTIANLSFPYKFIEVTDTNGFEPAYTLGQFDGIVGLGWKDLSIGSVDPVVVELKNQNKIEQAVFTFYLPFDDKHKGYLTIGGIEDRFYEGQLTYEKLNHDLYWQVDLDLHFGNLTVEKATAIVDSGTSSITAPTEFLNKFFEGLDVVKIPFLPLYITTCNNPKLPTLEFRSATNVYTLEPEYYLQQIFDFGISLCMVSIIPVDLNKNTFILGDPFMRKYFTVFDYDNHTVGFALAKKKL

| SMILES | IC50 (Plasmepsin I) | IC50 (Plasmepsin II) | IC50 [1] | IC50 (Cathepsin D) | IC50 (Plasmodium falciparum [2]) | IC50 (Plasmodium falciparum [3]) |
| --- | --- | --- | --- | --- | --- | --- |
| CCCNC(=O)c1cc(C(=O)N[C@@H](Cc2ccccc2)[C@H](O)CNC(C)(C)c2cccc(OC)c2)cc(N2CCCCC2)c1 | 750 nM | 500 nM | 38 nM | 110 nM | – | – |
| CCCN(CCC)C(=O)c1cc(C(=O)N[C@@H](Cc2ccccc2)[C@@H](O)CNC(C)(C)c2cccc(OC)c2)cc(N2CCCCS2(=O)=O)c1 | 18000 nM | 14000 nM | 470 nM | 4400 nM | 200 nM | – |
| CCCN(CCC)C(=O)c1cc(C(=O)N[C@@H](Cc2ccccc2)[C@H](O)CNC(C)(C)c2ccccc2)cc(N2CCCCS2(=O)=O)c1 | 2300 nM | 320 nM | 48 nM | 120 nM | – | – |
| CCCN(CCC)C(=O)c1cc(C(=O)N[C@@H](Cc2ccccc2)[C@@H](O)CNC(C)(C)c2ccccc2)cc(N2CCCCS2(=O)=O)c1 | 45000 nM | 24000 nM | 720 nM | 5800 nM | – | – |
| CCCN(CCC)C(=O)c1cc(C(=O)N[C@@H](Cc2ccccc2)[C@H](O)CNC(C)(C)c2cccc(OC)c2)cc(N2CCCCC2)c1 | 300 nM | 70 nM | 24 nM | 42 nM | 6 nM | – |
| CCCN(CCC)C(=O)c1cc(C(=O)N[C@@H](Cc2ccccc2)[C@H](O)CNC(C)(C)c2cccc(O)c2)cc(N2CCCCC2)c1 | 360 nM | 100 nM | 19 nM | 40 nM | – | – |
| CCCN(CCC)C(=O)c1cc(C(=O)N[C@@H](Cc2ccccc2)[C@H](O)CNC(C)(C)c2ccccc2)cc(N2CCCCC2)c1 | 380 nM | 110 nM | 23 nM | 51 nM | – | – |
| CCCN(CCC)C(=O)c1cc(C(=O)N[C@@H](Cc2ccccc2)[C@H](O)CNC(C)(C)c2ccccn2)cc(N2CCCCC2)c1 | 4100 nM | 800 nM | 250 nM | 350 nM | – | – |
| CCCN(CCC)C(=O)c1cc(C(=O)N[C@@H](Cc2ccccc2)[C@H](O)CNC(C)(C)c2cccnc2)cc(N2CCCCC2)c1 | 350 nM | 190 nM | 64 nM | 140 nM | – | – |
| CCCN(CCC)C(=O)c1cc(C(=O)N[C@@H](Cc2ccccc2)[C@H](O)CNC(C)(C)c2ccncc2)cc(N2CCCCC2)c1 | 470 nM | 270 nM | 90 nM | 170 nM | – | – |
| CCCN(CCC)C(=O)c1cc(C(=O)N[C@@H](Cc2ccccc2)[C@H](O)CNC(C)(C)c2cncc(OC)c2)cc(N2CCCCC2)c1 | 600 nM | 190 nM | 23 nM | 68 nM | – | – |
| CCCN(CCC)C(=O)c1cc(C(=O)N[C@@H](Cc2ccccc2)[C@H](O)CNC2(c3cccc(OC)c3)CC2)cc(N2CCCCC2)c1 | 330 nM | 150 nM | 25 nM | 100 nM | – | – |
| CCCN(CCC)C(=O)c1cc(C(=O)N[C@@H](Cc2ccccc2)[C@H](O)CNCc2cccc(OC)c2)cc(N2CCCCC2)c1 | 6100 nM | 600 nM | 180 nM | 200 nM | – | – |
| COc1cccc(C(C)(C)NC[C@@H](O)[C@H](Cc2ccccc2)NC(=O)c2cc(C(=O)N3CCCC3)cc(N3CCCCC3)c2)c1 | 1600 nM | 500 nM | 110 nM | 38 nM | – | – |
| COc1cccc(C(C)(C)NC[C@@H](O)[C@H](Cc2ccccc2)NC(=O)c2cc(C(N)=O)cc(N3CCCCC3)c2)c1 | 7600 nM | 4400 nM | 170 nM | 500 nM | – | – |
| CCCN(CCC)C(=O)c1cc(C(=O)N[C@@H](Cc2ccccc2)[C@H](O)CNC(C)(C)c2cccc(OC)c2)cc(C2CCCCC2)c1 | 200 nM | 36 nM | 25 nM | 19 nM | – | – |
| CCCN(CCC)C(=O)c1cc(C(=O)N[C@@H](Cc2ccccc2)[C@H](O)CNC(C)(C)c2cccc(OC)c2)cc(N2CCCC2)c1 | 430 nM | 120 nM | 7 nM | 32 nM | 4 nM | – |
| CCCN(CCC)C(=O)c1cc(C(=O)N[C@@H](Cc2ccccc2)[C@H](O)CNC(C)(C)c2cccc(OC)c2)cc(-c2ccccc2)c1 | 250 nM | 72 nM | 6 nM | 54 nM | 2 nM | – |
| CCCN(CCC)C(=O)c1cc(C(=O)N[C@@H](Cc2ccccc2)[C@H](O)CNCc2cccc(OC)c2)cc(N2CCCCS2(=O)=O)c1 | 18000 nM | 2700 nM | 200 nM | 360 nM | – | – |
| CCCN(CCC)C(=O)c1cc(C(=O)N[C@@H](Cc2ccccc2)[C@H](O)CNC(C)(C)c2cccc(OC)c2)cc(N2CCCCS2(=O)=O)c1 | 700 nM | 150 nM | 29 nM | 43 nM | 2 nM | 30 nM |
